# In patent US11969428B2, “Methods and pharmaceutical compositions for treating lymphoid malignancy” (priority 2011, dated 2024):
# Key:
# AURKC = molecular target: T1, AURKC (Homo sapiens, UniProt Q9UQB9); experiment: Ambit KinomeScan screening; type: binding; settings: CAL-130 10 μM
# T1 construct: purchased Ambit (KinomeScan screening service)
# Method in brief: (§1)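 Competition binding, 10 μM CAL-130 vs immobilized bait ligand; tagged kinases; readout % of control binding (lower = tighter); >35% = non-hit.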
# CAMK4 = molecular target: T2, CAMK4 (Homo sapiens, UniProt Q16566); experiment: Ambit KinomeScan screening; type: binding; settings: CAL-130 10 μM
# T2 construct: purchased Ambit (KinomeScan screening)
# Method in brief: as §1
# CAMKK2 = molecular target: T3, CAMKK2 (Homo sapiens, UniProt Q96RR4); experiment: Ambit KinomeScan screening; type: binding; settings: CAL-130 10 μM
# T3 construct: purchased Ambit (KinomeScan screening)
# Method in brief: as §1
# CDC2L1 = molecular target: T4, CDC2L1 (Homo sapiens, UniProt P21127); experiment: Ambit KinomeScan screening; type: binding; settings: CAL-130 10 μM
# T4 construct: purchased Ambit (KinomeScan screening)
# Method in brief: as §1
# CLK4 = molecular target: T5, CLK4 (Homo sapiens, UniProt Q9HAZ1); experiment: Ambit KinomeScan screening; type: binding; settings: CAL-130 10 μM
# T5 construct: purchased Ambit (KinomeScan screening service)
# Method in brief: as §1
# CSNK1D = molecular target: T6, CSNK1D (Homo sapiens, UniProt P48730); experiment: Ambit KinomeScan screening; type: binding; settings: CAL-130 10 μM
# T6 construct: purchased Ambit (KinomeScan screening service)
# T6 sequence (P48730 whole entry): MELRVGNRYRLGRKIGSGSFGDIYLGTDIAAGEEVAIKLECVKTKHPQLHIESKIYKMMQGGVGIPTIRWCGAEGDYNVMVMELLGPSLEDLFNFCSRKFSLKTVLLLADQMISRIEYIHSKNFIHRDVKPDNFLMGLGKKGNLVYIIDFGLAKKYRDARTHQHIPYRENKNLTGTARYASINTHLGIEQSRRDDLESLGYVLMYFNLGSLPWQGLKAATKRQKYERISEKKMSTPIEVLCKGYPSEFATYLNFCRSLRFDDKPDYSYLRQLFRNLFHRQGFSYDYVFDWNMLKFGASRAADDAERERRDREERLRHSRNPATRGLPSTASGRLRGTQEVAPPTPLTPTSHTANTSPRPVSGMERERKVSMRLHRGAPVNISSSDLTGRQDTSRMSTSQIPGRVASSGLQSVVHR
# Method in brief: as §1
# CSNK1G2 = molecular target: T7, CSNK1G2 (Homo sapiens, UniProt P78368); experiment: Ambit KinomeScan screening; type: binding; settings: CAL-130 10 μM
# T7 construct: purchased Ambit (KinomeScan screening service)
# Method in brief: as §1
# DCAMKL1 = molecular target: T8, DCAMKL1 (Homo sapiens, UniProt O15075); experiment: Ambit KinomeScan screening; type: binding; settings: CAL-130 10 μM
# T8 construct: unspecified tag ("tagged kinases"); purchased Ambit (KinomeScan screening service)
# Method in brief: as §1
# [1] = molecular target: T9, EGFR(L747-S752DEL, P753S) (Homo sapiens, UniProt P00533, DEL747-752/P753S); experiment: Ambit KinomeScan screening; type: binding; settings: CAL-130 10 μM
# T9 construct: unspecified tag; purchased Ambit (KinomeScan screening service)
# Method in brief: as §1
# EPHB3 = molecular target: T10, EPHB3 (Homo sapiens, UniProt P54753); experiment: Ambit KinomeScan screening; type: binding; settings: CAL-130 10 μM
# T10 construct: purchased Ambit (KinomeScan screening service)
# Method in brief: as §1
# FLT3(D835H) = molecular target: T11, FLT3(D835H) (Homo sapiens, UniProt P36888, D835H); experiment: Ambit KinomeScan screening; type: binding; settings: CAL-130 10 μM
# T11 construct: unspecified tag; purchased Ambit (KinomeScan screening service)
# Method in brief: as §1
# FYN = molecular target: T12, FYN (Homo sapiens, UniProt P06241); experiment: Ambit KinomeScan screening; type: binding; settings: CAL-130 10 μM
# T12 construct: unspecified tag ('tagged kinases'); purchased Ambit (KinomeScan screening service)
# T12 sequence (P06241 whole entry): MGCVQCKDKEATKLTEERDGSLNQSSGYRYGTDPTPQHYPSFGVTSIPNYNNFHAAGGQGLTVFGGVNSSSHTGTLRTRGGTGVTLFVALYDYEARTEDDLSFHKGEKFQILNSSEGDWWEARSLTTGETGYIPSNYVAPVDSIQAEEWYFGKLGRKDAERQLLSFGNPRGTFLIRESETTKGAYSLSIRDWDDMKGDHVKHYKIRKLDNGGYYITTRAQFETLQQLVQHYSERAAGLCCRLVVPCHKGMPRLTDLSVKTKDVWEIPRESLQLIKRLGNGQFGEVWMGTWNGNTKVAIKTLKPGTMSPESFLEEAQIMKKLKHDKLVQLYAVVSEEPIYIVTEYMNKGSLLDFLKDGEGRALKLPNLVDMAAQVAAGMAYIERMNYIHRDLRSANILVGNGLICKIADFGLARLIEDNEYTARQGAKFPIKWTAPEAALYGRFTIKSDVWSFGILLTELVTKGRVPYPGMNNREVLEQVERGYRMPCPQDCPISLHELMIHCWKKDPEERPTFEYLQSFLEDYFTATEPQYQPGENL
# Method in brief: as §1
# GRK1 = molecular target: T13, GRK1 (Homo sapiens, UniProt Q15835); experiment: Ambit KinomeScan screening; type: binding; settings: CAL-130 10 μM
# T13 construct: unspecified tag ('tagged kinases'); purchased Ambit (KinomeScan screening service)
# Method in brief: as §1
# HCK = molecular target: T14, HCK (Homo sapiens, UniProt P08631); experiment: Ambit KinomeScan screening; type: binding; settings: CAL-130 10 μM
# T14 construct: unspecified tag ('tagged kinases'); purchased Ambit (KinomeScan screening service)
# Method in brief: as §1
# ICK = molecular target: T15, ICK (Homo sapiens, UniProt Q9UPZ9); experiment: Ambit KinomeScan screening; type: binding; settings: CAL-130 10 μM
# T15 construct: Ambit (KinomeScan screening)
# Method in brief: as §1
# JAK1(JH1domain) = molecular target: T16, JAK1(JH1domain) (Homo sapiens, UniProt P23458); experiment: Ambit KinomeScan screening; type: binding; settings: CAL-130 10 μM
# T16 construct: JAK1(JH1domain); purchased Ambit (KinomeScan screening)
# T16 sequence (P23458 875-1153 limits assumed): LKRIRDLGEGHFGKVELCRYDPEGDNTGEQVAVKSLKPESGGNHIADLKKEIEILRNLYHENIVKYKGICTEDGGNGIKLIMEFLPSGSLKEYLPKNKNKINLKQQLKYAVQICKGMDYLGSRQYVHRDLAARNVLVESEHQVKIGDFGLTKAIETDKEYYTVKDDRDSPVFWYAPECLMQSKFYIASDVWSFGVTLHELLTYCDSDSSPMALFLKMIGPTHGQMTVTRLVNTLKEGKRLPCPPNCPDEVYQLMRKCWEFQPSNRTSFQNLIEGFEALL
# Method in brief: as §1
# LKB1 = molecular target: T17, LKB1 (Homo sapiens, UniProt Q15831); experiment: Ambit KinomeScan screening; type: binding; settings: CAL-130 10 μM
# T17 construct: unspecified tag ('tagged kinases'); purchased Ambit (KinomeScan screening service)
# Method in brief: as §1
# MEK6 = molecular target: T18, MEK6 (Homo sapiens, UniProt P52564); experiment: Ambit KinomeScan screening; type: binding; settings: CAL-130 10 μM
# T18 construct: purchased Ambit (KinomeScan screening)
# T18 sequence (P52564 whole entry): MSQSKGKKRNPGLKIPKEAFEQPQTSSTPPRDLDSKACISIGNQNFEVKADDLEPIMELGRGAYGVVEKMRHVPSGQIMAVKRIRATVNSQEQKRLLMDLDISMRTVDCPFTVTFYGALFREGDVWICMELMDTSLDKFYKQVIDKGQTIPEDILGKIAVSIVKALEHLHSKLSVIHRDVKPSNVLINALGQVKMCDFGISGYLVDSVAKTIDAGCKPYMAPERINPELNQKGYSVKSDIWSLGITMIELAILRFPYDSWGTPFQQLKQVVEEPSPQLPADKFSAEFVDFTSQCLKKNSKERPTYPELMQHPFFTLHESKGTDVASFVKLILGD
# Method in brief: as §1
# MET = molecular target: T19, MET (Homo sapiens, UniProt P08581); experiment: Ambit KinomeScan screening; type: binding; settings: CAL-130 10 μM
# T19 construct: purchased Ambit (KinomeScan screening)
# Method in brief: as §1
# PDGFRB = molecular target: T20, PDGFRB (Homo sapiens, UniProt P09619); experiment: Ambit KinomeScan screening; type: binding; settings: CAL-130 10 μM
# T20 construct: unspecified tag ('tagged kinases'); purchased Ambit (KinomeScan screening)
# Method in brief: as §1
# PFTK1 = molecular target: T21, PFTK1 (Homo sapiens, UniProt O94921); experiment: Ambit KinomeScan screening; type: binding; settings: CAL-130 10 μM
# T21 construct: unspecified tag ('tagged kinases'); purchased Ambit (KinomeScan screening)
# Method in brief: as §1
# PRKD2 = molecular target: T22, PRKD2 (Homo sapiens, UniProt Q9BZL6); experiment: Ambit KinomeScan screening; type: binding; settings: CAL-130 10 μM
# T22 construct: purchased Ambit (KinomeScan screening service)
# Method in brief: as §1
# PRP4 = molecular target: T23, PRP4 (Homo sapiens, UniProt Q13523); experiment: Ambit KinomeScan screening; type: binding; settings: CAL-130 10 μM
# T23 construct: tag (kind not specified); purchased Ambit (KinomeScan screening service)
# T23 sequence (Q13523 whole entry): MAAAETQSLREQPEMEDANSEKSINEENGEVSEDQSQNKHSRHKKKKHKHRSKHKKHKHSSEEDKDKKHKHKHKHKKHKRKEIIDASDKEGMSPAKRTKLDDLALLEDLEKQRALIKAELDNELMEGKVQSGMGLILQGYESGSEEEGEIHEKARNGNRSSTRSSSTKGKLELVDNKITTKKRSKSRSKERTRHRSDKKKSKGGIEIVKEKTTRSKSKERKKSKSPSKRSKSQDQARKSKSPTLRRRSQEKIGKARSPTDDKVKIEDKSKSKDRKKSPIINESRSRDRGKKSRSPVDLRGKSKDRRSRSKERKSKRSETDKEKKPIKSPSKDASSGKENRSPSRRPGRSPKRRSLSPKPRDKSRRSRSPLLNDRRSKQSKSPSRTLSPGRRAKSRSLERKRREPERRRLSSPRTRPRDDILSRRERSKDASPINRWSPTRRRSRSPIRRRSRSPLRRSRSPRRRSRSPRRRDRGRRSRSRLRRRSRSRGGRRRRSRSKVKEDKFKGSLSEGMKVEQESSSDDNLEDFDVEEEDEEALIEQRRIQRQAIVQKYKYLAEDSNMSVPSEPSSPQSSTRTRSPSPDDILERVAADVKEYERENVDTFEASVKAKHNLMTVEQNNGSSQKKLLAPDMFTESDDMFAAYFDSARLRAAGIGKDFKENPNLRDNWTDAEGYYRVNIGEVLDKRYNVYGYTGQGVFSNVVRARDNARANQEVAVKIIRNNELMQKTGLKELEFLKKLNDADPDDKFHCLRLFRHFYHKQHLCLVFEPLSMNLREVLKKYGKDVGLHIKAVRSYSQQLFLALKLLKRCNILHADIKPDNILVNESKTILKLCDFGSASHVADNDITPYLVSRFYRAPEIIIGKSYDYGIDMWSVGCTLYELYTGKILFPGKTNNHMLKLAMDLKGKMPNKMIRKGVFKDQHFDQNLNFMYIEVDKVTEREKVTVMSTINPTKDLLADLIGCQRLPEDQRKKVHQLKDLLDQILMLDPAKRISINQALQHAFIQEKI
# Method in brief: as §1
# RET(V804L) = molecular target: T24, RET(V804L) (Homo sapiens, UniProt P07949, V804L); experiment: Ambit KinomeScan screening; type: binding; settings: CAL-130 10 μM
# T24 construct: tag (kind not specified); purchased Ambit (KinomeScan screening service)
# T24 sequence (P07949 29-1114 V804L): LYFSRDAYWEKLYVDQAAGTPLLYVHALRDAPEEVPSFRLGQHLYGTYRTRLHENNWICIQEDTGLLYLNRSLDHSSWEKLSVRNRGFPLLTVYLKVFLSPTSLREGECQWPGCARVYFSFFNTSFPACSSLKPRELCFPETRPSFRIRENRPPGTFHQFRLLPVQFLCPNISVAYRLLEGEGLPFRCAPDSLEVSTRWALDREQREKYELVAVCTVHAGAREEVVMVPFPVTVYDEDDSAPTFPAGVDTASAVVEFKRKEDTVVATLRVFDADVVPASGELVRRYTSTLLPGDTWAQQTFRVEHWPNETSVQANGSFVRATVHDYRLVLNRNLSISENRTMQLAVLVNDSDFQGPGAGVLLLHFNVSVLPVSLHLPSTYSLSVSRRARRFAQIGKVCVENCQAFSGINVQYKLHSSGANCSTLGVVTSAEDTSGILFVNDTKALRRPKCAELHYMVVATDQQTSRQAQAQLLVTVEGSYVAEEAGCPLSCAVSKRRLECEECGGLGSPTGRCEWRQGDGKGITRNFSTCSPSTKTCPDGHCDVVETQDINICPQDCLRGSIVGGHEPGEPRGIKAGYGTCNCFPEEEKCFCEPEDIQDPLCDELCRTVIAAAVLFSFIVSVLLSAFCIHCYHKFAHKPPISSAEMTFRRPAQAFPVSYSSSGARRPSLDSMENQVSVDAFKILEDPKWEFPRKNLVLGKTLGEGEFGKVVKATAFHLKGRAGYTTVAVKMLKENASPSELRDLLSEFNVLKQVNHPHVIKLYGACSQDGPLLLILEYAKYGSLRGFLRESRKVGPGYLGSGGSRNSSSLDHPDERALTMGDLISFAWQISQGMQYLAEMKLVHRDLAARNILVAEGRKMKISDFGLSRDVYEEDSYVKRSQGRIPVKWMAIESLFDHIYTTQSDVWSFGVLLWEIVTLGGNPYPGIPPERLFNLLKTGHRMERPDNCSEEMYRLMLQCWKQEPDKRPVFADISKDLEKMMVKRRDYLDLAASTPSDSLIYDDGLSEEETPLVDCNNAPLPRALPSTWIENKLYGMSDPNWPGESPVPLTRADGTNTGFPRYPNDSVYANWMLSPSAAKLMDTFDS
# Method in brief: as §1
# RPS6KA4 = molecular target: T25, RPS6KA4 (Homo sapiens, UniProt O75676); experiment: Ambit KinomeScan screening; type: binding; settings: CAL-130 10 μM
# T25 construct: tag, kind not specified; purchased Ambit (KinomeScan screening service)
# Method in brief: as §1
# SgK110 = molecular target: T26, SgK110 (Homo sapiens, UniProt P0C264); experiment: Ambit KinomeScan screening; type: binding; settings: CAL-130 10 μM
# T26 construct: tag, kind not specified; purchased Ambit (KinomeScan screening service)
# T26 sequence (P0C264 whole entry): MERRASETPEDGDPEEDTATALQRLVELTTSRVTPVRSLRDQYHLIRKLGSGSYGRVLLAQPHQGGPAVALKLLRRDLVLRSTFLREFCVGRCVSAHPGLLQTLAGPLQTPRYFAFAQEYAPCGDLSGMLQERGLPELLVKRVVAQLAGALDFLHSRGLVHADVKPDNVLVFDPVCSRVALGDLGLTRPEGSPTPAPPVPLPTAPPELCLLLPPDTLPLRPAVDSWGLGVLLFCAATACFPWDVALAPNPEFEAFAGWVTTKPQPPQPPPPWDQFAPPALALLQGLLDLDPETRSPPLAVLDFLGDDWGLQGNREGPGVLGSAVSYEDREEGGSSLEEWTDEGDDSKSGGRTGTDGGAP
# Method in brief: as §1
# TEC = molecular target: T27, TEC (Homo sapiens, UniProt P42680); experiment: Ambit KinomeScan screening; type: binding; settings: CAL-130 10 μM
# T27 construct: unspecified tag (tagged kinase); purchased Ambit (KinomeScan screening)
# T27 sequence (P42680 whole entry): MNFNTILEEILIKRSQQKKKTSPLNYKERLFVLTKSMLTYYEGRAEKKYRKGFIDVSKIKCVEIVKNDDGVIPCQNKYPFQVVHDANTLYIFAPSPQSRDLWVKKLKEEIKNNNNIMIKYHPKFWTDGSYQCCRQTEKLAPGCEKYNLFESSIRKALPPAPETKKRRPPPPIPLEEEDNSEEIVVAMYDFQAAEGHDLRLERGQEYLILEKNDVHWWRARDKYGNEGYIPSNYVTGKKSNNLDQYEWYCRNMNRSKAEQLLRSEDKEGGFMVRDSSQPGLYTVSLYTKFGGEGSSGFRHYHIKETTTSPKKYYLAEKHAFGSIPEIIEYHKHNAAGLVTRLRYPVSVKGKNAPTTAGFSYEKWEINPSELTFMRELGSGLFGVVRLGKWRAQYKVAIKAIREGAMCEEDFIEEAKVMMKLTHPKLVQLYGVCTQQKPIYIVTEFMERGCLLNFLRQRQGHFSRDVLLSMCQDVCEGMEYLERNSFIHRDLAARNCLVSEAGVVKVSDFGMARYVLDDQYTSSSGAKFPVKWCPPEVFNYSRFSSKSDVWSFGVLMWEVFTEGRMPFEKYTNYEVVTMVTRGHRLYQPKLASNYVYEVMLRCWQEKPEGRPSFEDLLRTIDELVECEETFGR
# Method in brief: as §1
# TNIK = molecular target: T28, TNIK (Homo sapiens, UniProt Q9UKE5); experiment: Ambit KinomeScan screening; type: binding; settings: CAL-130 10 μM
# T28 construct: unspecified tag (tagged kinase); purchased Ambit (KinomeScan screening)
# Method in brief: as §1
# TNK2 = molecular target: T29, TNK2 (Homo sapiens, UniProt Q07912); experiment: Ambit KinomeScan screening; type: binding; settings: CAL-130 10 μM
# T29 construct: unspecified tag (tagged kinase); purchased Ambit (KinomeScan screening)
# Method in brief: as §1
# TSSK1B = molecular target: T30, TSSK1B (Homo sapiens, UniProt Q9BXA7); experiment: Ambit KinomeScan screening; type: binding; settings: CAL-130 10 μM
# T30 construct: tag, kind not specified; purchased Ambit (KinomeScan screening service)
# Method in brief: as §1
# TYK2(JH2domain) = molecular target: T31, TYK2(JH2domain) (Homo sapiens, UniProt P29597); experiment: Ambit KinomeScan screening; type: binding; settings: CAL-130 10 μM
# T31 construct: TYK2(JH2domain); tag, kind not specified; purchased Ambit (KinomeScan screening service)
# Method in brief: as §1
# p38-γ = molecular target: T32, p38-γ (Homo sapiens, UniProt P53778); experiment: Ambit KinomeScan screening; type: binding; settings: CAL-130 10 μM
# T32 construct: purchased Ambit (KinomeScan screening service)
# Method in brief: as §1
# Protocol for PTEN null T-ALL: Mice deficient for PTEN in the T cell lineage were generated by crossing Lck-cre with floxed Pten (Hennet et al., 1995; Trotman et al., 2003).
# Mice received an oral dose (10 mg kg^−1) of the inhibitor every 8 hours for a period of 7 days and were then followed until moribund.
# Pten^fl/fl mice were crossed with a strain in which a luciferase cDNA, preceded by a LoxP-stop-LoxP cassette, was introduced into the ubiquitously expressed ROSA26 locus (Safran et al., 2003). Progeny were then crossed with Lck-cre transgenics to delete Pten in T cell progenitors and induce expression of luciferase (Lck/Pten^fl/fl; Gt(ROSA)26Sor^tm1(Luc)Kael/J).
# T1 sequence (Q9UQB9 whole entry): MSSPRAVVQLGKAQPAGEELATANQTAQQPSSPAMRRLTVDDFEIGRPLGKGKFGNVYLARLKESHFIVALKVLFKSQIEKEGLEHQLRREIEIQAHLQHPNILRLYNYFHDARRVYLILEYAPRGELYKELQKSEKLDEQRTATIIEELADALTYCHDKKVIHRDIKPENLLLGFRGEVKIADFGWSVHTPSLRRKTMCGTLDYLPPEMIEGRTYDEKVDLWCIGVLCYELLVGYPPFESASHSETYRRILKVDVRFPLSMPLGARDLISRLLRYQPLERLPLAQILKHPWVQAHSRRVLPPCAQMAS
structure (smiles),measurement,setting,value
Cc1ccccc1-n1c(C(C)Nc2nc(N)nc3nc[nH]c23)nc2cccc(C)c2c1=O (centres unmarked) [CAL-130],Percent of Control Binding,AURKC,100%
same,Percent of Control Binding,CAMK4,100%
same,Percent of Control Binding,CAMKK2,18%
same,Percent of Control Binding,CDC2L1,100%
same,Percent of Control Binding,CLK4,100%
same,Percent of Control Binding,CSNK1D,100%
same,Percent of Control Binding,CSNK1G2,100%
same,Percent of Control Binding,DCAMKL1,100%
same,Percent of Control Binding,[1],100%
same,Percent of Control Binding,EPHB3,100%
same,Percent of Control Binding,FLT3(D835H),100%
same,Percent of Control Binding,FYN,100%
same,Percent of Control Binding,GRK1,100%
same,Percent of Control Binding,HCK,100%
same,Percent of Control Binding,ICK,100%
same,Percent of Control Binding,JAK1(JH1domain),100%
same,Percent of Control Binding,LKB1,100%
same,Percent of Control Binding,MEK6,100%
same,Percent of Control Binding,MET,100%
same,Percent of Control Binding,PDGFRB,100%
same,Percent of Control Binding,PFTK1,100%
same,Percent of Control Binding,PRKD2,100%
same,Percent of Control Binding,PRP4,100%
same,Percent of Control Binding,RET(V804L),100%
same,Percent of Control Binding,RPS6KA4,100%
same,Percent of Control Binding,SgK110,100%
same,Percent of Control Binding,TEC,100%
same,Percent of Control Binding,TNIK,100%
same,Percent of Control Binding,TNK2,100%
same,Percent of Control Binding,TSSK1B,100%
same,Percent of Control Binding,TYK2(JH2domain),100%
same,Percent of Control Binding,p38-γ,100%
same,"weights of thymi, liver, spleen, and kidneys versus vehicle control",PTEN null T-ALL; 7 days treatment,significantly less
same,median survival,"PTEN null T-ALL; Lck/Pten fl/fl mice with T-ALL, oral 10 mg kg−1 every 8 hours for 7 days",45 days
same,WBC,"PTEN null T-ALL; Lck/Pten fl/fl mice, by day 4",dramatic reduction
same,apoptosis (sub-G0 population after PI staining),"PTEN null T-ALL; Lck/Pten fl/fl mice, days 4 through 7",increase in apoptosis
same,bioluminescent signals,"PTEN null T-ALL; Lck/Pten fl/fl;Gt(ROSA)26Sor luciferase mice, day 4 of treatment",dramatically lower
same,peripheral blood T-ALL cells,"PTEN null T-ALL; diseased Lck/Pten fl/fl mice, within hours of treatment (data not shown)",dramatic and sustained reduction
